Test results from ChEMBL document CHEMBL5154741, “Antibacterial alkylguanidino ureas: Molecular simplification approach, searching for membrane-based MoA” (Eur J Med Chem, 2022).

Legend:
Format in all cases: ADME, cell membranes
Conditions in all cases: pH 7.4, 5 h
[1] = Apparent permeability of the compound across bacterial inner membrane mimic PC-phospholipids in PBS buffer assessed as membrane retention at pH 7.4 incubated for 5 hrs in presence of 1,3-bis(8-carbamimidamidooctyl)-1,3-bis({8-[N'-(cyclopropylmethyl)carbamimidamido]octyl})urea by PAMPA based UV-Vis spectrophotometric analysis
[2] = (§1) Apparent permeability of the compound across bacterial inner membrane mimic POPE/POPG (6:4) in PBS buffer assessed as membrane retention at pH 7.4 incubated for 5 hrs by PAMPA based UV-Vis spectrophotometric analysis
[3] = Apparent permeability of the compound across bacterial inner membrane mimic PC-phospholipids in PBS buffer assessed as membrane retention at pH 7.4 incubated for 5 hrs in presence of 1,1-bis({6-[N'-(cyclopropylmethyl)carbamimidamido]hexyl})-3-{8-[N'-(cyclopropylmethyl)carbamimidamido]octyl}-3-octylurea by PAMPA based UV-Vis spectrophotometric analysis
[4] = (§2) Apparent permeability of the compound across bacterial inner membrane mimic PC-phospholipids in PBS buffer assessed as membrane retention at pH 7.4 incubated for 5 hrs in presence of 1,3-bis(8-aminooctyl)-1,3-bis(8- carbamimidamidooctyl)urea trifluoroacetate salt by PAMPA based UV-Vis spectrophotometric analysis
[5] = (§3) Apparent permeability of the compound across bacterial inner membrane mimic pure POPG in PBS buffer assessed as membrane retention at pH 7.4 incubated for 5 hrs in presence of 1,3,3-tris(8-carbamimidamidooctyl)-1-{8-[N'-(cyclopropylmethyl)carbamimidamido]octyl}urea trifluoroacetate salt by PAMPA based UV-Vis spectrophotometric analysis
[6] = (§4) Apparent permeability of the compound across bacterial inner membrane mimic pure POPG in PBS buffer assessed as membrane retention at pH 7.4 incubated for 5 hrs by PAMPA based UV-Vis spectrophotometric analysis
[7] = as §1, with “hrs in presence of 1,1-bis({6-[N'-(cyclopropylmethyl)carbamimidamido]hexyl})-3-{8-[N'-(cyclopropylmethyl)carbamimidamido]octyl}-3-octylurea” for “hrs”
[8] = as §1, with “hrs in presence of {8-[N'(cyclopropylmethyl)carbamimidamido]octyl}urea trifluoroacetate salt” for “hrs”
[9] = Apparent permeability of the compound across bacterial inner membrane mimic pure POPG in PBS buffer assessed as membrane retention at pH 7.4 incubated for 5 hrs in presence of {8-[N'(cyclopropylmethyl)carbamimidamido]octyl}urea trifluoroacetate salt by PAMPA based UV-Vis spectrophotometric analysis
[10] = as §3, with “POPE/POPG (6:4)” for “pure POPG”
[11] = Apparent permeability of the compound across bacterial inner membrane mimic PC-phospholipids in PBS buffer assessed as membrane retention at pH 7.4 incubated for 5 hrs by PAMPA based UV-Vis spectrophotometric analysis
[12] = as §1, with “hrs in presence of 1,3-bis(8-carbamimidamidooctyl)-1,3-bis({8-[N'-(cyclopropylmethyl)carbamimidamido]octyl})urea” for “hrs”
[13] = as §4, with “hrs in presence of 1,1-bis({6-[N'-(cyclopropylmethyl)carbamimidamido]hexyl})-3-{8-[N'-(cyclopropylmethyl)carbamimidamido]octyl}-3-octylurea” for “hrs”
[14] = as §4, with “hrs in presence of 1,3-bis(8-carbamimidamidooctyl)-1,3-bis({8-[N'-(cyclopropylmethyl)carbamimidamido]octyl})urea” for “hrs”
[15] = as §2, with “1,3,3-tris(8-carbamimidamidooctyl)-1-{8-[N'-(cyclopropylmethyl)carbamimidamido]octyl}urea” for “1,3-bis(8-aminooctyl)-1,3-bis(8- carbamimidamidooctyl)urea”
[16] = as §2, with “POPE/POPG (6:4)” for “PC-phospholipids”
[17] = as §2, with “{8-[N'(cyclopropylmethyl)carbamimidamido]octyl}urea” for “1,3-bis(8-aminooctyl)-1,3-bis(8- carbamimidamidooctyl)urea”
[18] = as §2, with “pure POPG” for “PC-phospholipids”

- R% [1]: 12.6%
- R% [2]: 3.3%
- R% [3]: 0%
- R% [4]: 15.8%
- R% [5]: 14.6%
- R% [6]: 4.5%
- R% [7]: 16.7%
- R% [8]: 17.5%
- R% [9]: 13.4%
- R% [10]: 19%
- R% [11]: 3.2%
- R% [12]: 12.6%
- R% [13]: 14.7%
- R% [14]: 13.5%
- R% [15]: 8.1%
- R% [16]: 16.5%
- R% [17]: 12.8%
- R% [18]: 17.1%
Compound: Cn1c(=O)c2c(ncn2C)n(C)c1=O [CAFFEINE]
